Laboratory results: paper PMC7846792, “Perception of a divergent family of phytocytokines by the Arabidopsis receptor kinase MIK2” (Nature Communications, 2021)
No end group written: not given here.

Columns and labels:
[1] = biological target: MIK2 ectodomain (MIK2^ECD, residues 1–709) (Arabidopsis thaliana) (UniProt Q8VZG8); assay: ITC; 200 μM SCOOP12 in the syringe injected into 20 μM MIK2 ectodomain in the cell; 25 °C; 20 mM sodium citrate pH 5.0, 150 mM NaCl; N fitted to 1
[2] = biological target: T1, MIK2 ectodomain (MIK2ECD, residues 1–709) (Arabidopsis thaliana, UniProt Q8VZG8); assay: ITC, MIK2 vs SCOOP12; format: binding
T1 construct: Arabidopsis thaliana MIK2 (residues 1–709); StrepII-9xHis (TEV-cleavable) (C, cleaved yes); made in house; host or cells: Trichoplusia ni Tnao38 insect cells (baculovirus, modified pFastBac)
T1 sequence (Q8VZG8 44-709): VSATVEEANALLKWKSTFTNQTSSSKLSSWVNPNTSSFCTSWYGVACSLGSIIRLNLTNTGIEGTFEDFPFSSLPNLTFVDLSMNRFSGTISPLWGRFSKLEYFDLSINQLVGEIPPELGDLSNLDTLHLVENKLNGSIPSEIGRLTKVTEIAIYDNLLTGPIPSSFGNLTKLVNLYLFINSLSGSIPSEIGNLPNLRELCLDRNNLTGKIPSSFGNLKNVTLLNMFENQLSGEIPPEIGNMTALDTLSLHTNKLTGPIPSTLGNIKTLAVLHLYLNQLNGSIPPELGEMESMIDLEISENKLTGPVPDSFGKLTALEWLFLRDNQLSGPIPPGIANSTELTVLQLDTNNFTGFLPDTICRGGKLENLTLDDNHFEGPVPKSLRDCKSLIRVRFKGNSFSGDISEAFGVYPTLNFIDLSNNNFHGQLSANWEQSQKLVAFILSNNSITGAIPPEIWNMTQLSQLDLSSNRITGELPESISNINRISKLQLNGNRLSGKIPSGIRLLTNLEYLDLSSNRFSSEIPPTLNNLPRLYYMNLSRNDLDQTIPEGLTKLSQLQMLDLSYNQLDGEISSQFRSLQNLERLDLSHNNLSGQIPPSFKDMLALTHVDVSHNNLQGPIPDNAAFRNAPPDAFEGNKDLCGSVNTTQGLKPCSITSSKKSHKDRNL
Description: ITC data were corrected for the heat of dilution by subtracting the mixing enthalpies for titrant solution injections into protein-free ITC buffer. […] The N values were fitted to 1 in the analysis.

[3] = tested on: A. thaliana seedlings; assay: Seedling growth inhibition (fresh weight); format: in vivo, Arabidopsis thaliana; details: mock mean = 1
Procedure: Four-day-old seedlings growing on MS plates were transferred individually into separate wells of transparent 48-well tissue culture plates (Greiner Bio-One) containing 500 μL of liquid MS media with/without elicitor addition. The plates were then transferred back to the growth conditions for an additional 10 days before seedlings were blot-dried and weighed.

[4] = biological target: MIK2–SCOOP12 complex (MIK2 ectodomain with SCOOP12 peptide, formed beforehand in the ITC cell) (Arabidopsis thaliana) (UniProt Q8VZG8); assay: ITC; 200 µM BAK1 ectodomain titrated onto the MIK2–SCOOP12 complex in the cell; 25 °C; 20 mM sodium citrate pH 5.0, 150 mM NaCl; N fitted to 1

SERINE RICH ENDOGENOUS PEPTIDE 12 (SCOOP12) synthetic peptide
Kd [1]: 4.6 µM

PVRSSQSSQAGGR [SCOOP12]
Kd [2]: 4.56 ± 0.299 µM

RAGPSKSGQGGGR [SCOOP7]
Seedling fresh weight (Fig3C), relative to mock ([3]; Col-0, 1 μM, replicate 1): 0.0761
Seedling fresh weight (Fig3C), relative to mock ([3]; Col-0, 1 μM, replicate 2): 0.03653
Seedling fresh weight (Fig3C), relative to mock ([3]; Col-0, 1 μM, replicate 3): 0.1644
Seedling fresh weight (Fig3C), relative to mock ([3]; Col-0, 1 μM, replicate 4): 0.1522
Seedling fresh weight (Fig3C), relative to mock ([3]; Col-0, 1 μM, replicate 5): 0.1644
Seedling fresh weight (Fig3C), relative to mock ([3]; Col-0, 1 μM, replicate 6): 0.01826
Seedling fresh weight (Fig3C), relative to mock ([3]; Col-0, 1 μM, replicate 7): 0.0761
Seedling fresh weight (Fig3C), relative to mock ([3]; Col-0, 1 μM, replicate 8): 0.07914
Seedling fresh weight (Fig3C), relative to mock ([3]; Col-0, 1 μM, replicate 9): 0.09436
Seedling fresh weight (Fig3C), relative to mock ([3]; Col-0, 1 μM, replicate 10): 0.08523
Seedling fresh weight (Fig3C), relative to mock ([3]; Col-0, 1 μM, replicate 11): 0.1218
Seedling fresh weight (Fig3C), relative to mock ([3]; Col-0, 1 μM, replicate 12): 0.1035
Seedling fresh weight (Fig3C), relative to mock ([3]; Col-0, 10 μM, replicate 1): 0.009098
Seedling fresh weight (Fig3C), relative to mock ([3]; Col-0, 10 μM, replicate 2): 0.006065
Seedling fresh weight (Fig3C), relative to mock ([3]; Col-0, 10 μM, replicate 3): 0.003033
Seedling fresh weight (Fig3C), relative to mock ([3]; Col-0, 10 μM, replicate 4): 0.009098
Seedling fresh weight (Fig3C), relative to mock ([3]; Col-0, 10 μM, replicate 5): 0.01213
Seedling fresh weight (Fig3C), relative to mock ([3]; Col-0, 10 μM, replicate 6): 0.009098
Seedling fresh weight (Fig3C), relative to mock ([3]; Col-0, 10 μM, replicate 7): 0.01213
Seedling fresh weight (Fig3C), relative to mock ([3]; Col-0, 10 μM, replicate 8): 0.009098
Seedling fresh weight (Fig3C), relative to mock ([3]; Col-0, 10 μM, replicate 9): 0.01213
Seedling fresh weight (Fig3C), relative to mock ([3]; Col-0, 10 μM, replicate 10): 0.009098
Seedling fresh weight (Fig3C), relative to mock ([3]; Col-0, 10 μM, replicate 11): 0.01516
Seedling fresh weight (Fig3C), relative to mock ([3]; Col-0, 10 μM, replicate 12): 0.006065
Seedling fresh weight (Fig3C), relative to mock ([3]; mik2-1, 1 μM, replicate 1): 1.0796
Seedling fresh weight (Fig3C), relative to mock ([3]; mik2-1, 1 μM, replicate 2): 1.12
Seedling fresh weight (Fig3C), relative to mock ([3]; mik2-1, 1 μM, replicate 3): 1.033
Seedling fresh weight (Fig3C), relative to mock ([3]; mik2-1, 1 μM, replicate 4): 0.9787
Seedling fresh weight (Fig3C), relative to mock ([3]; mik2-1, 1 μM, replicate 5): 1.006
Seedling fresh weight (Fig3C), relative to mock ([3]; mik2-1, 1 μM, replicate 6): 0.861
Seedling fresh weight (Fig3C), relative to mock ([3]; mik2-1, 1 μM, replicate 7): 0.9955
Seedling fresh weight (Fig3C), relative to mock ([3]; mik2-1, 1 μM, replicate 8): 0.9652
Seedling fresh weight (Fig3C), relative to mock ([3]; mik2-1, 1 μM, replicate 9): 0.9047
Seedling fresh weight (Fig3C), relative to mock ([3]; mik2-1, 1 μM, replicate 10): 1.0157
Seedling fresh weight (Fig3C), relative to mock ([3]; mik2-1, 1 μM, replicate 11): 1.049
Seedling fresh weight (Fig3C), relative to mock ([3]; mik2-1, 1 μM, replicate 12): 0.9518
Seedling fresh weight (Fig3C), relative to mock ([3]; mik2-1, 10 μM, replicate 1): 1.014
Seedling fresh weight (Fig3C), relative to mock ([3]; mik2-1, 10 μM, replicate 2): 0.9772
Seedling fresh weight (Fig3C), relative to mock ([3]; mik2-1, 10 μM, replicate 3): 0.9332
Seedling fresh weight (Fig3C), relative to mock ([3]; mik2-1, 10 μM, replicate 4): 0.9062
Seedling fresh weight (Fig3C), relative to mock ([3]; mik2-1, 10 μM, replicate 5): 1.001
Seedling fresh weight (Fig3C), relative to mock ([3]; mik2-1, 10 μM, replicate 6): 0.94
Seedling fresh weight (Fig3C), relative to mock ([3]; mik2-1, 10 μM, replicate 7): 1.035
Seedling fresh weight (Fig3C), relative to mock ([3]; mik2-1, 10 μM, replicate 8): 1.085
Seedling fresh weight (Fig3C), relative to mock ([3]; mik2-1, 10 μM, replicate 9): 1.062
Seedling fresh weight (Fig3C), relative to mock ([3]; mik2-1, 10 μM, replicate 10): 0.9197
Seedling fresh weight (Fig3C), relative to mock ([3]; mik2-1, 10 μM, replicate 11): 0.9569
Seedling fresh weight (Fig3C), relative to mock ([3]; mik2-1, 10 μM, replicate 12): 0.9028

FTGPSGSGHGGGR [SCOOP10]
Seedling fresh weight (Fig3C), relative to mock ([3]; Col-0, 1 μM, replicate 1): 1.053
Seedling fresh weight (Fig3C), relative to mock ([3]; Col-0, 1 μM, replicate 2): 0.7731
Seedling fresh weight (Fig3C), relative to mock ([3]; Col-0, 1 μM, replicate 3): 0.8401
Seedling fresh weight (Fig3C), relative to mock ([3]; Col-0, 1 μM, replicate 4): 1.102
Seedling fresh weight (Fig3C), relative to mock ([3]; Col-0, 1 μM, replicate 5): 0.9923
Seedling fresh weight (Fig3C), relative to mock ([3]; Col-0, 1 μM, replicate 6): 0.9101
Seedling fresh weight (Fig3C), relative to mock ([3]; Col-0, 1 μM, replicate 7): 0.9071
Seedling fresh weight (Fig3C), relative to mock ([3]; Col-0, 1 μM, replicate 8): 0.8705
Seedling fresh weight (Fig3C), relative to mock ([3]; Col-0, 1 μM, replicate 9): 0.8462
Seedling fresh weight (Fig3C), relative to mock ([3]; Col-0, 1 μM, replicate 10): 0.7792
Seedling fresh weight (Fig3C), relative to mock ([3]; Col-0, 1 μM, replicate 11): 0.9497
Seedling fresh weight (Fig3C), relative to mock ([3]; Col-0, 1 μM, replicate 12): 0.9679
Seedling fresh weight (Fig3C), relative to mock ([3]; Col-0, 10 μM, replicate 1): 0.6611
Seedling fresh weight (Fig3C), relative to mock ([3]; Col-0, 10 μM, replicate 2): 0.655
Seedling fresh weight (Fig3C), relative to mock ([3]; Col-0, 10 μM, replicate 3): 0.649
Seedling fresh weight (Fig3C), relative to mock ([3]; Col-0, 10 μM, replicate 4): 0.4731
Seedling fresh weight (Fig3C), relative to mock ([3]; Col-0, 10 μM, replicate 5): 0.5034
Seedling fresh weight (Fig3C), relative to mock ([3]; Col-0, 10 μM, replicate 6): 0.7187
Seedling fresh weight (Fig3C), relative to mock ([3]; Col-0, 10 μM, replicate 7): 0.652
Seedling fresh weight (Fig3C), relative to mock ([3]; Col-0, 10 μM, replicate 8): 0.7096
Seedling fresh weight (Fig3C), relative to mock ([3]; Col-0, 10 μM, replicate 9): 0.5944
Seedling fresh weight (Fig3C), relative to mock ([3]; Col-0, 10 μM, replicate 10): 0.5519
Seedling fresh weight (Fig3C), relative to mock ([3]; Col-0, 10 μM, replicate 11): 0.555
Seedling fresh weight (Fig3C), relative to mock ([3]; Col-0, 10 μM, replicate 12): 0.6884
Seedling fresh weight (Fig3C), relative to mock ([3]; mik2-1, 1 μM, replicate 1): 0.8644
Seedling fresh weight (Fig3C), relative to mock ([3]; mik2-1, 1 μM, replicate 2): 1.019
Seedling fresh weight (Fig3C), relative to mock ([3]; mik2-1, 1 μM, replicate 3): 1.022
Seedling fresh weight (Fig3C), relative to mock ([3]; mik2-1, 1 μM, replicate 4): 0.7702
Seedling fresh weight (Fig3C), relative to mock ([3]; mik2-1, 1 μM, replicate 5): 0.8139
Seedling fresh weight (Fig3C), relative to mock ([3]; mik2-1, 1 μM, replicate 6): 0.8307
Seedling fresh weight (Fig3C), relative to mock ([3]; mik2-1, 1 μM, replicate 7): 0.9619
Seedling fresh weight (Fig3C), relative to mock ([3]; mik2-1, 1 μM, replicate 8): 1.049
Seedling fresh weight (Fig3C), relative to mock ([3]; mik2-1, 1 μM, replicate 9): 1.086
Seedling fresh weight (Fig3C), relative to mock ([3]; mik2-1, 1 μM, replicate 10): 1.002
Seedling fresh weight (Fig3C), relative to mock ([3]; mik2-1, 1 μM, replicate 11): 1.026
Seedling fresh weight (Fig3C), relative to mock ([3]; mik2-1, 1 μM, replicate 12): 1.123
Seedling fresh weight (Fig3C), relative to mock ([3]; mik2-1, 10 μM, replicate 1): 0.8284
Seedling fresh weight (Fig3C), relative to mock ([3]; mik2-1, 10 μM, replicate 2): 1.096
Seedling fresh weight (Fig3C), relative to mock ([3]; mik2-1, 10 μM, replicate 3): 0.9366
Seedling fresh weight (Fig3C), relative to mock ([3]; mik2-1, 10 μM, replicate 4): 0.8791
Seedling fresh weight (Fig3C), relative to mock ([3]; mik2-1, 10 μM, replicate 5): 0.9096
Seedling fresh weight (Fig3C), relative to mock ([3]; mik2-1, 10 μM, replicate 6): 0.8453
Seedling fresh weight (Fig3C), relative to mock ([3]; mik2-1, 10 μM, replicate 7): 0.967
Seedling fresh weight (Fig3C), relative to mock ([3]; mik2-1, 10 μM, replicate 8): 0.94
Seedling fresh weight (Fig3C), relative to mock ([3]; mik2-1, 10 μM, replicate 9): 0.9806
Seedling fresh weight (Fig3C), relative to mock ([3]; mik2-1, 10 μM, replicate 10): 0.896
Seedling fresh weight (Fig3C), relative to mock ([3]; mik2-1, 10 μM, replicate 11): 1.031
Seedling fresh weight (Fig3C), relative to mock ([3]; mik2-1, 10 μM, replicate 12): 1.096

B1: BAK1 ectodomain (residues 1–220) (domain or fragment)
chain: NAEGDALSALKNSLADPNKVLQSWDATLVTPCTWFHVTCNSDNSVTRVDLGNANLSGQLVMQLGQLPNLQYLELYSNNITGTIPEQLGNLTELVSLDLYLNNLSGPIPSTLGRLKKLRFLRLNNNSLSGEIPRSLTAVLTLQVLDLSNNPLTGDIPVNGSFSLFTPISFANTKLTPLPASPPPPISPTPPSPAGS
Kd [4]: 0.275 µM
